Results reported in US10039806B2, “Methods and compositions for treating antiprogestin-resistant cancers” (Fundación Sales, priority 2011, dated 2018).
Where two headings read alike, the source gives them in different places.

Key:
[1] = molecular target: T1, PR (Homo sapiens, UniProt P06401); conditions: cited from earlier work
T1 sequence (P06401 1-933): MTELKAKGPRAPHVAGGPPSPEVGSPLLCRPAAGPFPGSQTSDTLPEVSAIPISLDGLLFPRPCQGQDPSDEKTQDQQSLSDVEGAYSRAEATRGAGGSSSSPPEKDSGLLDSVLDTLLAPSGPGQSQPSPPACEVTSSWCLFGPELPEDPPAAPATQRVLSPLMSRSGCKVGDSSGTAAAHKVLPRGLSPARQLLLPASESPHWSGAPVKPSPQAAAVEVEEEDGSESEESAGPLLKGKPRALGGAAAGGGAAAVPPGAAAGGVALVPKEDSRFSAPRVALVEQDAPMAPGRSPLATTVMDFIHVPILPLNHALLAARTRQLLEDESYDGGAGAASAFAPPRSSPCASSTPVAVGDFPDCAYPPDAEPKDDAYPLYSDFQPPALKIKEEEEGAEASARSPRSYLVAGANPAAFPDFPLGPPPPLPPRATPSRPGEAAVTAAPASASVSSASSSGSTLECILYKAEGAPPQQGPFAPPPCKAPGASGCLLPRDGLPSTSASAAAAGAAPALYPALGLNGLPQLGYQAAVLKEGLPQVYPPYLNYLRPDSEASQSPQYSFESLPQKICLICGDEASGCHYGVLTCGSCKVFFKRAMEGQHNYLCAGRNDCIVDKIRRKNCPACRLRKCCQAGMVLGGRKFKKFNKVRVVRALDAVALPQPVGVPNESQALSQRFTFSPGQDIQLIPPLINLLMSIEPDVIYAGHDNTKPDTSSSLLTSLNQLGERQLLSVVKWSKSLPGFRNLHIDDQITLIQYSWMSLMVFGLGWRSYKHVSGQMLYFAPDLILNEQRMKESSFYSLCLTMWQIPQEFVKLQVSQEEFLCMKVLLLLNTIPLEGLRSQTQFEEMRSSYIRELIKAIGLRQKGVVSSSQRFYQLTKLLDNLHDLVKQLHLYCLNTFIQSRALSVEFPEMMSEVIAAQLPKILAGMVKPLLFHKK

[2] = molecular target: GR (Homo sapiens, UniProt P04150); conditions: cited from earlier work
[3] = system: HI-responsive tumors; assay: MPA breast cancer model, HI-responsive tumors in vivo; parameters: species or system mouse
[4] = molecular target: T2, glucocorticoid receptor (Homo sapiens, UniProt P04150); conditions: cited from earlier work
T2 sequence (P04150 1-777): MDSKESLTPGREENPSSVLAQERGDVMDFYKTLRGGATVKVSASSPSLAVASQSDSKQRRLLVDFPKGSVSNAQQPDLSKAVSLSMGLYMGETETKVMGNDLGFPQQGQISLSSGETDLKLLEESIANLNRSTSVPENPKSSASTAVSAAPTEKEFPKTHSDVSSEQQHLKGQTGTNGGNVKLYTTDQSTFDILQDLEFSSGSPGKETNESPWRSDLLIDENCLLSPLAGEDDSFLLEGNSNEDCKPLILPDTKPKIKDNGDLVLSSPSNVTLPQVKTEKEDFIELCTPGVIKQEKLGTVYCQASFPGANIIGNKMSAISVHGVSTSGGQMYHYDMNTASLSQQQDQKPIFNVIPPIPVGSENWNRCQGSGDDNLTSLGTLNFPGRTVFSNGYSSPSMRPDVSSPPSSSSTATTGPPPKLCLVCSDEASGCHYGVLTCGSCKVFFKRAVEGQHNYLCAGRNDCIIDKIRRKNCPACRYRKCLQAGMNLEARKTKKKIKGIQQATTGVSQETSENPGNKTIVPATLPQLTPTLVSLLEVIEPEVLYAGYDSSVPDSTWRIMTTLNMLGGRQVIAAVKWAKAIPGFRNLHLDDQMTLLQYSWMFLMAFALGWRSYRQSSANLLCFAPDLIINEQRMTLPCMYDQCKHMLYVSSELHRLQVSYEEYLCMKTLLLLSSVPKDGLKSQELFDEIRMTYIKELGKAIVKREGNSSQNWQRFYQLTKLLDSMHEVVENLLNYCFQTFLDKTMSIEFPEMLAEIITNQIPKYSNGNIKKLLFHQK

[5] = system: T61 human tumors; conditions: in vivo; cited from earlier work
[6] = system: DMBA-induced mammary tumors; conditions: cited from earlier work
[7] = system: primary cultures of responsive tumors; conditions: 1-100 nM; cited from earlier work
[8] = system: T47D cells; conditions: cited from earlier work
[9] = system: HI-responsive tumors; conditions: cited from earlier work; for therapeutic effects: murine mammary carcinomas with increased PR-A/PR-B
[10] = system: MCF-7 xenografts; conditions: MIF 50 mg/kg/day, ONA 30 mg/kg/day, 17 days; cited from earlier work
[11] = system: MXT mouse model of breast cancer; conditions: cited from earlier work
[12] = molecular target: T1, PR; conditions: cited from earlier work; remark: listed apart in the source
[13] = system: breast cancer; conditions: cited from earlier work
[14] = system: MCF-7 cells; conditions: 10 nM; 10% steroid-deficient human serum; cited from earlier work
[15] = system: epithelial cells from breast cancer samples; assay: Primary cultures from breast cancer samples: cell number or Ki67; assay type: cell-based, human; conditions: 10^-8 M, one week; 3 out of 8 cases; p<0.05
Source text: The samples were obtained at surgery from patients diagnosed with breast cancer at the […]. de Martinez Hospital from General Pacheco and at the […] Hospital of Buenos Aires after signing the informed consent (n=70; median age 55 year). Protocols were approved by the Institutional Ethical Review Board. Whenever possible, one piece of the sample was kept in dry ice immediately after surgery and another piece was kept in culture medium and transported to IBYME. Tumor samples were processed by mechanical and enzymatic degradation and epithelial cells were purified by differential sedimentation techniques (7). The epithelial cells were cultured with DMEM/F12 medium plus 10% fetal calf serum (FCS). Once the cultures were overcrowded, they were subcultured and equal numbers of cells were seeded in 24 well plates. […] OH-Tamoxifen was also used as a control. After one week of treatment, the cells were trypsinized and the total number of cells in each well was counted or alternatively, they were fixed to evaluate the Ki67 (proliferation marker) expression by IHC. In several cases in which there were carcinoma associated fibroblasts intermingled with the epithelial cells, a double staining of Ki67 and cytokeratin (CK) was performed to consider the proliferating cells among the total number of epithelial cells (CK+). An inhibitory index was calculated for each tumor.

[16] = system: C4-HI cells; assay: (3H)-thymidine uptake, primary cultures of purified epithelial cells; assay type: cell-based, mouse; conditions: 48 h, with MPA; P<0.001
Method: (§1) Epithelial cells and carcinoma-associated fibroblasts were separated by differential sedimentation and plated with 10% FCS. Carcinoma-associated fibroblasts were allowed to attach for 0.5 h and the epithelial cells for 24-48 h. The medium was replaced by fresh medium with 10% FCS; thereafter, it was changed every 2-3 days.
(§2) (3H)-thymidine-uptake was used as an indirect method to evaluate cell proliferation. In brief, cells were seeded into 96-well microplates. After attachment (24 h), the cells were incubated for 24 h with 1% steroid-stripped FCS and then for 48 h with the experimental solutions to be tested in 1% chFCS. Fifty percent of the medium was replaced with fresh medium every 24 h. The cells were incubated with 0.4 μCi of 3H-thymidine (specific activity: 20 Ci/mmol) for 24 h, trypsinized, and harvested in a cell harvester. In experiments in which 5azadC was used, the experiments were carried out using proliferating cells (presence of 10% FCS) to guarantee the effect of the demethylating agent. Three different experiments were made using octuplicates, and the means and standard deviations of one representative experiment of the other three are shown. The results are expressed as the proliferation index (cpm […] experimental group/cpm control; mean±SEM).

[17] = system: C4-HIR cells; assay: as above; assay type: cell-based, mouse; conditions: 48 h, with MPA; P<0.001
Method: as §1, §2

C/C=C\[C@]1(O)CC[C@H]2[C@@H]3CCC4=CC(=O)CCC4=C3[C@@H](c3ccc(N(C)C)cc3)C[C@@]21C [Aglepristone]
PR affinity [1]: high affinity
GR affinity [2]: lower affinity
tumor regression ([3]; 3 mg/week, unpublished data): regress

CC(=O)O[C@]1(C(C)=O)CC[C@H]2[C@@H]3CCC4=CC(=O)CCC4=C3[C@@H](c3ccc(N(C)C)cc3)C[C@@]21C [CDB-2914]
antiglucocorticoid activity [4]: less than that of MIF

COCC(=O)[C@@]1(OC(C)=O)CC[C@H]2[C@@H]3CCC4=CC(=O)CCC4=C3[C@@H](c3ccc(N(C)C)cc3)C[C@@]21C [CDB-4124]
antiglucocorticoid activity [4]: less than that of MIF

C[C@]12CC[C@@H]3c4ccc(O)cc4CC[C@H]3[C@@H]1CC[C@@H]2O [E2, 17-β-Estradiol]
tumor growth [5]: induces tumor regression
tumor regression ([3]; 0.5-5 mg): regress

CN(C)c1ccc([C@H]2C[C@]3(C)[C@@H](CC[C@]3(O)CCCO)[C@@H]3CCC4=CC(=O)CCC4=C32)cc1 [ONA, onapristone]
efficacy compared with MIF ([6]; same doses): more efficacious than MIF
MPA-induced or FGF2-induced cell proliferation [7]: inhibited MPA-induced or FGF2-induced cell proliferation
antiglucocorticoid activity [4]: antiglucocorticoid effects at higher concentrations
effects on T47D cells ([8]; 5% FCS): inhibitory effects
tumor regression ([9]; daily doses of 10 mg/kg): regress
tumor regression ([9]; mouse, in vivo): induced tumor regression
therapeutic effects [9]: excellent therapeutic effects
tumor growth [5]: has no effect
E2-induced proliferation of xenografts [10]: inhibited
inhibition of cell proliferation compared with MIF ([11]; 10 mg/kg/day): better than MIF at inhibiting cell proliferation
tumor take and stimulatory effects of E2 and MPA ([11]; 1 or 10 mg/kg/day from one day post-transplantation): inhibited both tumor take and the stimulatory effects of E2 and MPA
effect in cells treated with analogs of cyclic AMP ([12]; T47D cells transfected with MMTV-CAT): still behaved as an antagonist
partial response ([13]; 19 patients): 56%
stable disease ([13]; 19 patients): 11%
reason for discontinuation ([13]; human, in vivo): hepatotoxicity
reason for stopping the trial ([13]; human, in vivo): liver function test abnormalities

C[C@@H]1C[C@@H]2C(=C3CCC(=O)C=C31)[C@@H](c1ccc(N(C)C)cc1)C[C@@]1(C)[C@H]2CC[C@@]12CCCO2 [Org 31710]
efficacy compared with MIF ([6]; p.o.): more effective than MIF

C[C@H]1CC2=CC(=O)CCC2=C2[C@@H]1[C@@H]1CC[C@@]3(CCCO3)[C@@]1(C)C[C@@H]2c1ccc(N(C)C)cc1 [Org 31806]
efficacy compared with MIF ([6]; p.o.): more effective than MIF

CCC(=O)[C@@]1(C)CC[C@H]2[C@@H]3CCC4=CC(=O)CCC4=C3CC[C@@]21C [R5020]
proliferation of T47D and MCF-7 cells ([8]; MIF at micromolar concentrations): stimulate the proliferation

CC/C(=C(\c1ccccc1)c1ccc(OCCN(C)C)cc1)c1ccccc1 [Tamoxifen, tamoxifen]
PR (and ER) expression ([6]; rat, in vivo): increased PR expression
E2-induced cell proliferation ([8]; clone 11, ER- and PR-positive): specifically inhibit E2-induced cell proliferation
tumor growth [5]: inhibits tumor growth
E2-induced cell proliferation [14]: inhibited E2-induced cell proliferation
tumor growth ([3]; mouse, in vivo): tumor growth was inhibited
number of cells as compared to the controls [15]: significant decrease in the number of cells

CC#C[C@]1(O)CC[C@H]2[C@@H]3CCC4=CC(=O)CCC4=C3[C@@H](c3ccc(C(C)=O)cc3)C[C@@]21C [ZK 112993]
tumor growth [5]: significantly inhibits the growth

CC(=O)c1ccc([C@H]2C[C@@]3(C)[C@@H](CC[C@@]3(O)C(F)(F)C(F)(F)F)[C@@H]3CCC4=CC(=O)CCC4=C32)cc1 [ZK 230211, lonaprisan]
MPA-induced or FGF2-induced cell proliferation [7]: inhibited MPA-induced or FGF2-induced cell proliferation
antiglucocorticoid activity [4]: low antiglucocorticoid activity
apoptosis ([8]; 10 nM): induces apoptosis
MPA-induced proliferative effect [16]: abolished
MPA-induced proliferative effect [17]: abolished
tumor regression ([9]; daily doses of 10 mg/kg): regress
tumor regression ([9]; mouse, in vivo): induced tumor regression
therapeutic effects [9]: excellent therapeutic effects
effect on PKA-activated PR-B [12]: no effect on PKA-activated PR-B
